Drawing on ChEMBL document CHEMBL3507680, “University of Dundee, Gates Library screen for HepG2 cell viability”, this text covers cytotoxicity for 93 compounds.

Structures are written as SMILES.

The series is described as follows: Human HepG2 cell viability assay in 384 well format. On the set-up: dose 125 nL, time 70.5 hour; cytotoxicity at 70.5 h: concentration not given beside the values. The following applies: HepG2 cells, read-out: Inhibition. In kind it is toxicity, cell-based.
Turning to `O=C([C@H]1C[C@H]2[C@H](CCN2Cc2cccs2)O1)N1CCOCC1`, the cytotoxicity at 70.5 h was -16.9%. With `CC(C)NC(=O)N1CCC2(CC(=O)N(c3ccsc3)C2)C1` (stereo not drawn) the figure was -14.3%; with `CC(C)CCC(=O)N1CC[C@@H]2[C@H](CC1)N(S(C)(=O)=O)CCS2(=O)=O`, -10.2%; with `O=C([C@H]1CCCO1)N1CCc2ncnc(C3CC3)c2CC1`, -11.8%.

As for `CC(C)Nc1ncnc2c1CCN(Cc1ccoc1)CC2`, the cytotoxicity at 70.5 h is -12.6%.

On to `CN(C)Cc1nn(C)c2c1CCN(C(=O)c1cccnc1)C2`, for which the cytotoxicity at 70.5 h is -20.7%. For `Cc1cccc(C(=O)N2CCc3c(CN(C)C)nn(C)c3C2)n1`, the cytotoxicity at 70.5 h is -14.3%.

Turning to `COc1cc(N2CC[C@@H](OC)[C@@H]2Cc2cnn(C)c2)ncn1`, the cytotoxicity at 70.5 h came out at 33.8%. With `O=C(c1cscn1)N1C[C@@H](Oc2cccnc2)[C@H]2OCCC[C@H]21` the figure was 26.4%; with `COc1cc(N2CC[C@@H]3O[C@H](C(=O)NCC4CC4)C[C@@H]32)ncn1`, 16.5%. For `COc1cc(N2CC[C@@H]3O[C@@H](C(=O)NCCN(C)C)C[C@@H]32)ncn1`, the cytotoxicity at 70.5 h is -9.68%.

With `O=C(NCC1CCCO1)c1c(-n2cnnn2)sc2c1CCC2` (stereo not drawn), the cytotoxicity at 70.5 h is -18.6%. `CC(C)CCn1[nH]c(CNc2ccccc2)nc1=O`: the cytotoxicity at 70.5 h is -10.8%. As to `CC1(C)Cc2ccccc2-c2nc(NCCO)[nH]c(=O)c21`, the cytotoxicity at 70.5 h is -8.18%. Turning to `CN1CCc2c(C#N)c(NCc3ccco3)n3cnnc3c2C1`, the cytotoxicity at 70.5 h is -7.42%. With `O=C(Cn1ccc2ccc(Br)cc21)NCc1ccc(C(=O)O)cc1` the figure was -6.34%; with `O=C(c1cc(-n2cnnn2)ccc1Cl)N1CCC2(CC1)OCCO2`, -7.22%; with `Cc1cc(O)c(OCC(=O)/N=c2\[nH]cc(C)s2)cn1`, -21%. For the compound `COCc1n[nH]/c(=N/C(=O)COc2cnc(C)cc2O)s1`, the cytotoxicity at 70.5 h was -9.66%.

For the compound `COc1ccc(-c2n[nH]cc2C2SCC(=O)Nc3[nH]ncc32)cc1` (stereo not drawn), the cytotoxicity at 70.5 h is -9.36%. As for `CC(=O)c1cccc(NC(=O)Cn2cc(I)cn2)c1`, the cytotoxicity at 70.5 h is -9.34%. With `O=C(CCn1ccc2cc(Br)ccc21)NCc1ccc(C(=O)O)cc1` the figure was -5.77%. With `CC(C)CCn1c(=O)nc2n1C(=O)N(c1ccc(F)cc1)C2` the figure was 22.3%; with `CC(C)Oc1ccccc1C1CC(=O)Nc2c1cnn2C` (stereo not drawn), -11.9%; with `CCNC(=O)c1ccc2c(c1)nc1n2CCN(Cc2ccco2)C1`, -16%. With `Cc1ccccc1N1CC2(CCN(S(=O)(=O)C3CC3)C2)CC1=O` (stereo not drawn) the figure was -14.8%; with `CN1[C@@H](C(=O)NCC2CC2)C[C@@H]2CN(Cc3ccco3)C[C@@H]21`, -12.2%. Take `Cc1ccccc1N1CC2(CCN(S(=O)(=O)c3cccs3)C2)CC1=O` (stereo not drawn): the cytotoxicity at 70.5 h was found to be 14%. With `CCN1C(=O)CCCC12CCCN(C(=O)c1cnccn1)C2` (stereo not drawn), the cytotoxicity at 70.5 h is -5.91%. With `Cc1cccc(CN2C[C@@H]3CN(C(=O)[C@H]4CCCO4)C[C@@H]3C2=O)c1` the figure was -5.16%; with `Cc1noc(C)c1CN1CCCC2(CCN(C(=O)CC3CC3)C2)C1` (stereo not drawn), 41.6%.

Take `COCCN1C(=O)CCC12CCN(C(=O)CC1CC1)CC2`: the cytotoxicity at 70.5 h was determined as 35.3%.

Regarding `Cc1cnc(N2CCC3(CCN(CC4CC4)C3=O)CC2)nc1`, the cytotoxicity at 70.5 h is -9.16%. Take `C[C@H]1CN(Cc2cnn(C)c2)C[C@@]12CCN(Cc1cccnc1)C2=O`: the cytotoxicity at 70.5 h is -7.75%.

`COCCC(=O)N1CCCC2(CCC(=O)N2CCOC)CC1` (stereo not drawn): the cytotoxicity at 70.5 h was -7.23%. With `COc1cccc(CN2CCCC3(CCN(C(=O)c4ccco4)C3)C2)c1` (stereo not drawn) the figure was -8.94%; with `COc1cccc(CN2CCCC3(CCN(C(=O)[C@H]4CCCO4)C3)C2)c1` (stereo partly drawn), -2.99%; with `COCCCN1CC2(CCCCN2C(=O)c2ccsc2)CC1=O` (stereo not drawn), 8.24%. With `CS(=O)(=O)N1CCCC12CCCN(S(=O)(=O)c1ccc(F)cc1)C2` (stereo not drawn) the figure was -8.04%; with `c1cncc(COCC2CN(Cc3ccco3)Cc3ccnn3C2)c1` (stereo not drawn), 0.213%.

Take `O=C(NCc1cnc2n1CCN(c1ncc(F)cn1)CC2)C1CCC1`: the cytotoxicity at 70.5 h is -9.1%.

For the compound `Cc1occc1C(=O)N1CCc2ncnc(-c3cnn(C)c3)c2CC1`, the cytotoxicity at 70.5 h was -8.07%. On to `Cn1cccc1C(=O)N1CCc2c(CNS(C)(=O)=O)cncc2C1`, for which the cytotoxicity at 70.5 h is -18.4%. Turning to `CCOc1ccccc1C1CCCN1` (stereo not drawn), the cytotoxicity at 70.5 h was 1.15%.

Turning to `CCCN1C(=O)CC2(CCCNC2)C1=O` (stereo not drawn), the cytotoxicity at 70.5 h was -14.9%. On to `Cc1ccc(NCc2cncc3c2CCN(Cc2ccccn2)C3)nn1`, for which the cytotoxicity at 70.5 h was -13.4%. With `NCC1[C@H]2CN(CCc3ccccc3)C[C@@H]12` (stereo partly drawn) the figure was 43.3%; with `O=C(c1ccnnc1)N1C[C@H](Oc2ccccn2)[C@H]2OCCC[C@H]21`, -8.72%; with `O=C(N[C@@H]1CN(Cc2ccoc2)[C@@H]2CCCO[C@@H]21)C1CC1`, -12.9%. Consider `CC1=N[C@@]2(CC[C@@H]3CN(Cc4ccccc4)C[C@@H]32)C(=O)N1CC1CC1`, for which the cytotoxicity at 70.5 h was -21.6%. With `O=C(N1CCOCC1)N1CCc2ncnc(NC3CCC3)c2CC1` the figure was -14.5%; with `CC(C)NC(=O)N1CCOC2(CCCN(c3ncccc3F)C2)C1` (stereo not drawn), -13.6%. With `CCN1CCn2c(C)cnc2C12CCN(C(=O)NCC(C)C)CC2` the figure was -11.3%; with `CN1CCS(=O)(=O)[C@@H]2CCN(C(=O)CC(C)(C)C)CC[C@@H]21`, -3.84%; with `Cc1nc(CN2CC[C@@H]3O[C@@H](C(=O)N4CCOCC4)C[C@@H]32)cs1`, -9.93%. As for `CCN1CCn2c(C)cnc2C12CCN(C(=O)NC)CC2`, the cytotoxicity at 70.5 h is -6.2%. With `CN(C)C(=O)N[C@H]1CN(Cc2ccc3c(c2)OCO3)[C@@H]2CCCO[C@H]12` the figure was -12.8%; with `COCC1Cn2nnc(-c3cnn(C)c3)c2CN1Cc1ccoc1` (stereo not drawn), -8.84%; with `CC(C)NC(=O)N1Cc2nccn2CC(COc2cccnc2)C1` (stereo not drawn), 9.72%. With `COc1cc(N2CC[C@H]3O[C@@H](C(=O)NC4CCCC4)CC[C@H]32)ncn1` the figure was -9.02%; with `O=C(NCC1CC1)C1CCC2(CCN(C(=O)c3ccccn3)CC2)O1` (stereo not drawn), 20.3%. With `O=C1CCC2(CCCN(CCc3ccccc3)C2)N1Cc1cccnc1` (stereo not drawn) the figure was -25%; with `CC(C)NC(=O)CC1COC2(CCN(Cc3ccccc3)CC2)C1` (stereo not drawn), -14.2%. With `COc1ccc(CN2CCC3(CC2)CCN(CC2CC2)C3=O)cc1`, the cytotoxicity at 70.5 h was -14.4%.

As for `O=C1C[C@H]2[C@@H](CCN2C(=O)Cc2cccs2)N1Cc1cccnc1`, the cytotoxicity at 70.5 h is -17%. With `Cc1cccc(CN2CCc3nnc(CO)n3CC2)n1`, the cytotoxicity at 70.5 h was -3.1%. `CCN1CCC2(C=C(C(=O)NC3CC3)c3ccccc32)CC1`: the cytotoxicity at 70.5 h is -3.64%. With `CNC(=O)CN1CCCC12CCN(C(=O)c1ccsc1)CC2` the figure was -6.13%; with `O=C1N(CC2CC2)CCC12CCN(c1ncccn1)CC2`, -3.31%. Turning to `O=C1CCC2(CCN(Cc3ccc(F)cc3)CC2)N1Cc1ccccc1`, the cytotoxicity at 70.5 h is -5.78%.

`NC(=O)N1CCC2(CC1)CN(Cc1cccnc1)C(=O)CO2`: the cytotoxicity at 70.5 h is -7.6%. With `CCn1nnc2c1C(COC)CN(Cc1ccsc1)C2` (stereo not drawn) the figure was -0.304%. With `CN(C)C[C@H]1OC[C@@H]2CCN(C(=O)c3ccco3)C[C@@H]21` the figure was -1.52%; with `COCCO[C@@H]1CCN(Cc2csc(C)n2)[C@H]1Cc1ccccc1`, -8.53%; with `Cc1ccc2c(n1)N(CCn1cccn1)CCN(C(=O)CC1CC1)C2`, -15.3%. Turning to `COC[C@@H]1CC[C@H]2[C@H](CCN2C(=O)c2ccncc2F)O1`, the cytotoxicity at 70.5 h is -7.3%. With `Cc1ccc2c(n1)N(CCn1cccn1)CCN(C(=O)NC1CC1)C2` the figure was -10.7%. With `Cc1nc(COC[C@]23COC[C@H]2CN(Cc2ccoc2)C3)cs1` the figure was -9.47%; with `Cc1ccoc1C(=O)N1CCOCC2(CCN(c3ncccn3)C2)C1` (stereo not drawn), -11.7%; with `CN(C)C[C@H]1OC[C@@H]2CCN(C(=O)c3cccn3C)C[C@@H]21`, -7.55%. With `CCN1CCn2c(C)cnc2C12CCN(C(=O)COC)CC2` the figure was 25%; with `CCN1CCn2c(C)cnc2C12CCN(C(=O)Cc1ccccc1)CC2`, 24.6%. For `COc1ccc(CN2CCO[C@H]3[C@H](OCCN4CCCC4)CC[C@@H]32)cc1`, the cytotoxicity at 70.5 h is -9.88%.

`COCC1c2c(cnn2CC2CC2)CCN1Cc1ccsc1` (stereo not drawn): the cytotoxicity at 70.5 h was -20.6%. With `CNC(=O)[C@@H]1C[C@H]2CN(Cc3ccco3)C[C@H]2N1C` the figure was -15.3%. On to `CC(C)NC(=O)N1CCN(Cc2ccccn2)CC2(CC(=O)N(C)C2)C1` (stereo not drawn), for which the cytotoxicity at 70.5 h is 22.3%.

For `CN(C)CCN1CCCC12CCN(C(=O)c1cccnc1)CC2`, the cytotoxicity at 70.5 h was -3.11%. With `CN1[C@H](CN2CCCC2)C[C@@H]2CN(C(=O)c3cccn3C)CC[C@@H]21` the figure was 1.34%. With `COCCN1CCc2cc(C(=O)N(C)C)c(NCC3CC3)nc2CC1` the figure was -4.26%; with `O=C1CC2(CCN(CC3CC3)C2)CN1c1cccnc1` (stereo not drawn), -9.06%. Take `c1cncc(CN2CCO[C@H]3[C@H](OCCN4CCCC4)CC[C@@H]32)c1`: the cytotoxicity at 70.5 h is -8.38%.

Take `Cc1cccc(CN2C(=O)C[C@H]3[C@@H]2CCN3Cc2ccccn2)n1`: the cytotoxicity at 70.5 h came to 23.7%. Consider `Cc1ccc(N(CC(=O)c2ccc(Br)cc2)C2=NCCCCC2)cc1`, for which the cytotoxicity at 70.5 h was 16.7%.
